One assay deals with human factor Xa (FXa) (Homo sapiens (Human), UniProt P00742). As to the kind of experiment: Determination of the factor Xa inhibition (chromogenic substrate). It is filed as biochemical. As to the method:
Factor Xa cleaves p-nitroaniline from the chromogenic substrate. The determinations were carried out in microtitre plates as follows.
The test substances, in various concentrations, were dissolved in DMSO and incubated at 25° C. with human FXa (0.5 nmol/l dissolved in 50 mmol/l of tris buffer [C,C,C-tris(hydroxymethyl)-aminomethane], 150 mmol/l of NaCl, 0.1% BSA (bovine serum albumin), pH=8.3) for 10 minutes. Pure DMSO was used as control. The chromogenic substrate (150 μmol 11 of Pefachrome® FXa from Pentapharm) was then added.

Assay [1] has as its system thrombus formation in arteriovenous shunt. As to the kind of experiment: Arteriovenous shunt model (rat), antithrombotic activity. Format: in vivo. As to conditions: po, read-out: ED50 [mg/kg] p.o. As to the method: b) Determination of the Antithrombotic Activity (In Vivo) b.1) Arteriovenous Shunt Model (Rat) Fasting male rats (strain: HSD CPB:WU) having a weight of 200-250 g were anaesthetized using a Rompun/Ketavet solution (12 mg/kg/50 mg/kg). Thrombus formation was initiated in an arteriovenous shunt in accordance with the method described by Christopher N. Berry et al., Br. J. Pharmacol. (1994), 113, 1209-1214. To this end, the left jugular vein and the right carotid artery were exposed. The two vessels were connected by an extracorporeal shunt using a polyethylene tube (PE 60) of a length of 10 cm. […] The extracorporeal circulation was maintained for 15 minutes. The shunt was then removed and the nylon thread with the thrombus was weighed immediately. The weight of the nylon thread on its own had been determined before the experiment was started. Before the extracorporeal circulation was set up, the test substances were administered to the animals while awake either intravenously via the tail vein or orally using a pharyngeal tube.

SMILES strings stand for the structures.

Sequence of human factor Xa (FXa) (P00742 235-488): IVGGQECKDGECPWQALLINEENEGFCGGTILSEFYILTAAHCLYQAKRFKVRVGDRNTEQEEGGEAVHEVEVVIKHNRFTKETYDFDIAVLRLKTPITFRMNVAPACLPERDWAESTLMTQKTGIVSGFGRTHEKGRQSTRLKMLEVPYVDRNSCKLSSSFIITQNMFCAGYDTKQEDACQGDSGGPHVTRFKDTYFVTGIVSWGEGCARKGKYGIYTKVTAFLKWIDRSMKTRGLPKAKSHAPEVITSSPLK
Sequence of human factor Xa (FXa) (P00742 41-179 partner): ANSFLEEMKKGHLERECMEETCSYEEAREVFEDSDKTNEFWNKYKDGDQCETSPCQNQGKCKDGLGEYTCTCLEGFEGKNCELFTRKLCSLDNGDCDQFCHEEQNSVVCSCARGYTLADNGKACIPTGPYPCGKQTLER

For the compound `O=C(NC[C@H]1CN(c2ccc(S(=O)(=O)N3CCC3)cc2)C(=O)O1)c1ccc(Cl)s1` [Example 39, 5-Chloro-N-({(5S)-3-[4-(1-azetidinylsulphonyl)phenyl]-2-oxo-1,3-oxazolidin-5-yl}methyl)-2-thiophenecarboxannide], the IC50 (in general, the midpoint of a concentration-inhibition curve) at human factor Xa (FXa) (human FXa 0.5 nmol/l, Pefachrome FXa substrate, 25° C., value printed in example text) stood at 0.84 µM.

In turn, `O=C(NC[C@H]1CN(c2ccc(N3CCN(C(=O)CO)CC3)c(F)c2)C(=O)O1)c1ccc(Cl)s1` [Example 48] displayed an IC50 against human factor Xa (FXa) (human FXa, table of Examples 48-57) of 0.12 µM.

For the compound `O=C(NC[C@H]1CN(c2ccc(N3CCOCC3=O)cc2)C(=O)O1)c1ccc(Cl)s1` [Example 44, 5-Chloro-N-({(5S)-2-oxo-3-[4-(3-oxo-4-morpholinyl)phenyl]-1,3-oxazolidin-5-yl}methyl)-2-thiophenecarboxamide], the ED50 in assay [1] was 3 mg/kg.

The record behind these values is patent US8822458B2, “Substituted oxazolidinones and their use in the field of blood coagulation” (Bayer Intellectual Property GmbH, priority 1999, dated 2014).
